Test results taken from US10918645B2 (LIFEARC, priority 2016, dated 2021).

What was measured:
Type in all cases: biochemical
Settings in all cases: 1 μM inhibitor concentration
[1] = molecular target: NUAK1 (Homo sapiens (Human), UniProt O60285); experiment: NUAK1 kinase selectivity assay
Description: NUAK1 (5-20 mU diluted in 50 mM Tris pH 7.5, 0.1 mM EGTA, 0.1% 0-mercaptoethanol, 1 mg/ml BSA) is assayed against […] in a final volume of 25.5 μl containing 50 mM Tris pH 7.5, 0.1 mM EGTA, 0.3 mM […], 10 mM magnesium acetate and 0.02 mM [33P-γ-ATP] (50-1000 cpm/pmole) and incubated for 30 min at room temperature. Assays are stopped by addition of 5 μl of 0.5 M (3%) orthophosphoric acid and then harvested onto P81 Unifilter plates with a wash buffer of 50 mM orthophosphoric acid.

[2] = molecular target: PAK4 (Homo sapiens (Human), UniProt O96013); experiment: PAK4 kinase selectivity assay
Description: PAK4 (5-20 mU diluted in 50 mM Tris pH 7.5, 0.1 mM EGTA, 0.1% b-mercaptoethanol, 1 mg/ml BSA) is assayed against a substrate peptide ([…]) in a final volume of 25.5 μl containing 50 mM Tris pH 7.5, 0.05% b-mercaptoethanol, 300 μM substrate peptide, 10 mM magnesium acetate and 0.005 mM [33P-g-ATP] (50-1000 cpm/pmole) and incubated for 30 min at room temperature. Assays are stopped by addition of 5 μl of 0.5 M (3%) orthophosphoric acid and then harvested onto P81 Unifilter plates with a wash buffer of 50 mM orthophosphoric acid.

[3] = molecular target: TrkA (Homo sapiens (Human), UniProt P04629); experiment: TrkA kinase selectivity assay
Description: TrkA (5-20 mU diluted in 50 mM Tris pH 7.5, 0.1 mM EGTA, 10 mM MnCl, 1 mg/ml BSA) is assayed against a substrate peptide (Poly Glut Tyr) in a final volume of 25.5 μl containing 50 mM Tris pH 7.5, 0.1 mM EGTA, 1 mg/ml substrate peptide, 10 mM magnesium acetate and 0.02 mM [33P-γ-ATP] (50-1000 cpm/pmole) and incubated for 30 min at room temperature. Assays are stopped by addition of 5 μl of 0.5 M (3%) orthophosphoric acid and then harvested onto P81 Unifilter plates with a wash buffer of 50 mM orthophosphoric acid.

[4] = molecular target: MLK1 (Homo sapiens (Human), UniProt P80192); experiment: MLK1 kinase selectivity assay
Description: (§1) MLK1 (5-20 mU diluted in 50 mM Tris pH 7.5, 0.1 mM EGTA, 0.1% 0-mercaptoethanol, 1 mg/ml BSA) is assayed against MBP in a final volume of 25.5 μl containing 50 mM Tris pH 7.5, 0.1 mM EGTA, 0.33 mg/ml MBP, 10 mM magnesium acetate and 0.02 mM [33P-γ-ATP] (50-1000 cpm/pmole) and incubated for 30 min at room temperature. Assays are stopped by addition of 5 μl of 0.5 M (3%) orthophosphoric acid and then harvested onto P81 Unifilter plates with a wash buffer of 50 mM orthophosphoric acid.

[5] = molecular target: PRK2 (Homo sapiens (Human), UniProt Q16513); experiment: PRK2 kinase selectivity assay
Description: 5-20 mU of PRK2 (diluted in 50 mM Tris (pH 7.5), 0.1 mM EGTA, 1 mg/ml BSA, 0.1%, b-Mercaptoethanol) is assayed against Long S6 peptide ([…]) in a final volume of 25.5 μl containing 50 mM Tris (pH 7.5), 0.1 mM EGTA, 0.1%, b-Mercaptoethanol, 30 μM Long S6 peptide, 10 mM magnesium acetate and 0.005 mM [33P-g-ATP](500-1000 cpm/pmole) and incubated for 30 mins at room temperature. Assays are stopped by addition of 5 μl of 0.5M (3%) orthophosphoric acid. Assays are harvested onto P81 Unifilter plates using a wash buffer of 50 mM orthophosphoric acid.

[6] = molecular target: MINK1 (Homo sapiens (Human), UniProt Q8N4C8); experiment: MINK1 kinase selectivity assay
Description: as §1, with “MINK1” for “MLK1”, “β-mercaptoethanol,” for “0-mercaptoethanol,”, “0.05” for “0.02”

[7] = molecular target: CSK (Homo sapiens (Human), UniProt P41240); experiment: CSK kinase selectivity assay
Description: CSK (5-20 mU diluted in 20 mM MOPS pH7.5, 1 mM EDTA, 0.01% Brij35, 5% glycerol, 0.1% b-mercaptoethanol, 1 mg/ml BSA) is assayed against Cdc2 peptide ([…]) in a final volume of 25.5 μl containing 8 mM MOPS pH7.0, 0.2 mM EDTA, Cdc2 peptide (0.25 mM), 10 mM magnesium acetate and 0.02 mM [33P-g-ATP](500-1000 cpm/pmole) and incubated for 30 min at room temperature Assays are stopped by addition of 5 μl of 0.5 M (3%) orthophosphoric acid and then harvested onto P81 Unifilter plates with a wash buffer of 50 mM orthophosphoric acid.

[8] = molecular target: CK1δ (Homo sapiens (Human), UniProt P48730); experiment: CK1 kinase selectivity assay
Description: CK1 (5-20 mU diluted in 20 mM Hepes pH7.5, 0.15 M NaCl, 0.1 mM EGTA, 0.1% Triton X-100, 5 mM DTT, 50% glycerol) is assayed against CKI peptide ([…]) in a final volume of 25.5 μl containing 20 mM Hepes pH 7.5, 0.15 M NaCl, 0.1 mM EDTA, 5 mM DTT, 0.1% Triton-X 100, CKI peptide (0.5 mM), 10 mM magnesium acetate and 0.02 mM [33P-g-ATP](500-1000 cpm/pmole) and incubated for 30 min at room temperature. Assays are stopped by addition of 5 μl of 0.5 M (3%) orthophosphoric acid and then harvested onto P81 Unifilter plates with a wash buffer of 50 mM orthophosphoric acid.

CK1δ, sequence (P48730 whole entry): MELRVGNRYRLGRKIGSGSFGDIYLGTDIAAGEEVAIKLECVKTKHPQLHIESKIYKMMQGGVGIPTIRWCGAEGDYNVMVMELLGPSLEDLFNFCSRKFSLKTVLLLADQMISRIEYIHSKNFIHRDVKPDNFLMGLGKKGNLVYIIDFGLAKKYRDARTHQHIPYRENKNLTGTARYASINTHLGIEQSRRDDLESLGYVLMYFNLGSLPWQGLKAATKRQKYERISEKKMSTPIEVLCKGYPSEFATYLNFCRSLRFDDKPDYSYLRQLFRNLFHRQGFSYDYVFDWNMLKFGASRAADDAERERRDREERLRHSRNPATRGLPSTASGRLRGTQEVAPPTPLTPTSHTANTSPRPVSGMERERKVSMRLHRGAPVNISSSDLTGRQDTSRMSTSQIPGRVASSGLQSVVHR
PRK2, sequence (Q16513 whole entry, species assumed): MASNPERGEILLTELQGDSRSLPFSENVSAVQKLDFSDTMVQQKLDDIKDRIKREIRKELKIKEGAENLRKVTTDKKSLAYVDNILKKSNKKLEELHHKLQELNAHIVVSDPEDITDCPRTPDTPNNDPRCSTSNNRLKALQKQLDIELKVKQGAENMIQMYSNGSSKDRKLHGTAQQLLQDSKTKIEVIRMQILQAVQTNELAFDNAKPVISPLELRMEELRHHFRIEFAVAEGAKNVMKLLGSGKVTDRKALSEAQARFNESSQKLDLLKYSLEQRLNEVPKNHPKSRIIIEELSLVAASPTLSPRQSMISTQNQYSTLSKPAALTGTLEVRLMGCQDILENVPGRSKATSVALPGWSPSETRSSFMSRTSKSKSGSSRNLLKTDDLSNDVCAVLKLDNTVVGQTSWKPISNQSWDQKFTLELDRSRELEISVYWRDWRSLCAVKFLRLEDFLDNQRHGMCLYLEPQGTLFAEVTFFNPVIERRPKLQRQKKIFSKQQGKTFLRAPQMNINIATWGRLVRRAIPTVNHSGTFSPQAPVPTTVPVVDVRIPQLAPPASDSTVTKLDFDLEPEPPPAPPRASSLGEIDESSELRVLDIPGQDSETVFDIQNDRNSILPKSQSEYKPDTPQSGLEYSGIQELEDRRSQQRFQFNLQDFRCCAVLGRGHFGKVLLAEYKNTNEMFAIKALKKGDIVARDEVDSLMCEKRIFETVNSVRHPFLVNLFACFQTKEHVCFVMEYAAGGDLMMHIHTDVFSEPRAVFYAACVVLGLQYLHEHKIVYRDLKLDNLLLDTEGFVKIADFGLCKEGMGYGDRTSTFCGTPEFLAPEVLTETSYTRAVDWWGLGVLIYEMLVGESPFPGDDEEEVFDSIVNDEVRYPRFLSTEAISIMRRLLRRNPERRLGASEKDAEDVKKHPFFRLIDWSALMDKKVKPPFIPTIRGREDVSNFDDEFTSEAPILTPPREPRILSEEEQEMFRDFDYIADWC
TrkA, sequence (P04629 33-796, species assumed): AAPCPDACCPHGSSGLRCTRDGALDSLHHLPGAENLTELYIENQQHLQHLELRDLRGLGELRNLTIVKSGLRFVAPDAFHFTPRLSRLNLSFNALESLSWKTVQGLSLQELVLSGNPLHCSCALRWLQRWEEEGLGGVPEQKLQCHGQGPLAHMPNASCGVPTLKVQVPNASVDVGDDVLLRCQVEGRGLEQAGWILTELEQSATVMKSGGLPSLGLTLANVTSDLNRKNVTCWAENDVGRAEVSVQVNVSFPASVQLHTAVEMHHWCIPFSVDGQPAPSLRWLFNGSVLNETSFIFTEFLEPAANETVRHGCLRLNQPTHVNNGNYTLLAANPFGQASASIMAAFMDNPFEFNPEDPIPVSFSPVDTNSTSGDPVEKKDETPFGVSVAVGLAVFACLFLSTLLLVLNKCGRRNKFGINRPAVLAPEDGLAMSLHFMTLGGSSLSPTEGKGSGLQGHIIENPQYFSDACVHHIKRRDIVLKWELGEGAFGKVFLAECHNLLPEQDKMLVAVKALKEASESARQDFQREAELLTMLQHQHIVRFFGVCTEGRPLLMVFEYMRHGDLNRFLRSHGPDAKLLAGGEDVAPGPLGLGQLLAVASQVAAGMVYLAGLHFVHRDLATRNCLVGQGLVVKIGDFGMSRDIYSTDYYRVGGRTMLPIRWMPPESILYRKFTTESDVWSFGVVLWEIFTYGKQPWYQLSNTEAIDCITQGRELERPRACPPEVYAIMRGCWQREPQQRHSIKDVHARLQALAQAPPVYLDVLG
MINK1, sequence (Q8N4C8 whole entry, species assumed): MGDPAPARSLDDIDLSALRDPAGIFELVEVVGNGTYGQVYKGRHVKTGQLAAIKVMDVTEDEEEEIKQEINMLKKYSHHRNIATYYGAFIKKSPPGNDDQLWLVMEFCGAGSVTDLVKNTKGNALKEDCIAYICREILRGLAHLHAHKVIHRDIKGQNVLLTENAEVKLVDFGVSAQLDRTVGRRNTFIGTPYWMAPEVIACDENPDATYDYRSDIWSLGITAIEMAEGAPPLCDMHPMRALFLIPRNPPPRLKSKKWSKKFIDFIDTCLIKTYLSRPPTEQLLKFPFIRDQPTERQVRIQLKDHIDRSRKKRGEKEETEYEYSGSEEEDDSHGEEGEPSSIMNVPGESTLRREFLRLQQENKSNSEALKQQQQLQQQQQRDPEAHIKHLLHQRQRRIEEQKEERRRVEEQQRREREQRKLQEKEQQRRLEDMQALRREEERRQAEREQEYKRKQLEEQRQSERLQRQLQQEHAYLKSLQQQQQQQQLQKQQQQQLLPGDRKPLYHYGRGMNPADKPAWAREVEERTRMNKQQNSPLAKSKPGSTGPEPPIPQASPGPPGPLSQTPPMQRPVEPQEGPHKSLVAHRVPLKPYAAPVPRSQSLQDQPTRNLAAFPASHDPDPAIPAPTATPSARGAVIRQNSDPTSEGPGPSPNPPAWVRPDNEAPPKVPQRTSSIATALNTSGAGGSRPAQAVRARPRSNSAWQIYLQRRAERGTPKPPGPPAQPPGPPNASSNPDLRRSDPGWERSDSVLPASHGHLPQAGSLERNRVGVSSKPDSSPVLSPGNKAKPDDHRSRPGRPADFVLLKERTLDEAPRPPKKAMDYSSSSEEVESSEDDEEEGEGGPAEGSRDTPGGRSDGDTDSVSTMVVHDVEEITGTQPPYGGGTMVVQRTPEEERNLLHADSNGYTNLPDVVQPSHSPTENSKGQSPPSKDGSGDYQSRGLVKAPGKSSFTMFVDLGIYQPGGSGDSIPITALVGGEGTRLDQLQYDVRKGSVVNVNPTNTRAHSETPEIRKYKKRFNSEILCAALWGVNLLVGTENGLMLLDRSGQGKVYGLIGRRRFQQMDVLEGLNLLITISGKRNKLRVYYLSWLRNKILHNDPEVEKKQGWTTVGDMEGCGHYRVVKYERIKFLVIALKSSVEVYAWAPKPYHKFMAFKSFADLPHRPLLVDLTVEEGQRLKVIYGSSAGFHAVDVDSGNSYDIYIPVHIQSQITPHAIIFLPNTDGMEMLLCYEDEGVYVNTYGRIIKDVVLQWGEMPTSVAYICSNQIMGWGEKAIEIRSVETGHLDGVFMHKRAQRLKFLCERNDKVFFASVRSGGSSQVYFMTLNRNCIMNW
MLK1, sequence (P80192 whole entry, species assumed): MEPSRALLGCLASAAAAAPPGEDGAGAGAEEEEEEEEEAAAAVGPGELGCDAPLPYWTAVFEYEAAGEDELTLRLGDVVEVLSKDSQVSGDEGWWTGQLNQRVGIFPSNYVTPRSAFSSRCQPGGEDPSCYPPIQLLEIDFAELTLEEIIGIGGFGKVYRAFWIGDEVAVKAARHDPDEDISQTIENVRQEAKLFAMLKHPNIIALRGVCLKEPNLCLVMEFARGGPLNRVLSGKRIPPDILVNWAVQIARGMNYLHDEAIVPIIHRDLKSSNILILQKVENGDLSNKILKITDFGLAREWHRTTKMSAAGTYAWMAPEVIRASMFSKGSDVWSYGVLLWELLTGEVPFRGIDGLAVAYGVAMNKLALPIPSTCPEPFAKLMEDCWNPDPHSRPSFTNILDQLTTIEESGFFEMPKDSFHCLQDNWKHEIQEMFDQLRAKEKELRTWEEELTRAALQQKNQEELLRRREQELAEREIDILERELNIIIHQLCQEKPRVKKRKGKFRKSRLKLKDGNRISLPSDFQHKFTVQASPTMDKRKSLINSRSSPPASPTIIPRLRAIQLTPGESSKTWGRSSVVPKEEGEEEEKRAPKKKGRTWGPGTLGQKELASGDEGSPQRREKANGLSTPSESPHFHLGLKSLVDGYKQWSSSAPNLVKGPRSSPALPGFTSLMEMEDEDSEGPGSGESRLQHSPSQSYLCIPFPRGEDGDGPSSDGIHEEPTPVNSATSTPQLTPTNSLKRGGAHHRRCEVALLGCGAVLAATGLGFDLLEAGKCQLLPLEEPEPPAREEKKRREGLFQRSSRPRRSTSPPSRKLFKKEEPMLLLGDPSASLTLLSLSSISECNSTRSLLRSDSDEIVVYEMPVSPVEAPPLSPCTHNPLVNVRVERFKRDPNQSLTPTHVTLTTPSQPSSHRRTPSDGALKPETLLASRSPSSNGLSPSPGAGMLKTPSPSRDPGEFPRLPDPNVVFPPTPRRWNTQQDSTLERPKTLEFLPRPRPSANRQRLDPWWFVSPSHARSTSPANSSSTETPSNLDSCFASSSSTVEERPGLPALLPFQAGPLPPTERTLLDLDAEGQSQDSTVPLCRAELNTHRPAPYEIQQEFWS
CSK, sequence (P41240 whole entry, species assumed): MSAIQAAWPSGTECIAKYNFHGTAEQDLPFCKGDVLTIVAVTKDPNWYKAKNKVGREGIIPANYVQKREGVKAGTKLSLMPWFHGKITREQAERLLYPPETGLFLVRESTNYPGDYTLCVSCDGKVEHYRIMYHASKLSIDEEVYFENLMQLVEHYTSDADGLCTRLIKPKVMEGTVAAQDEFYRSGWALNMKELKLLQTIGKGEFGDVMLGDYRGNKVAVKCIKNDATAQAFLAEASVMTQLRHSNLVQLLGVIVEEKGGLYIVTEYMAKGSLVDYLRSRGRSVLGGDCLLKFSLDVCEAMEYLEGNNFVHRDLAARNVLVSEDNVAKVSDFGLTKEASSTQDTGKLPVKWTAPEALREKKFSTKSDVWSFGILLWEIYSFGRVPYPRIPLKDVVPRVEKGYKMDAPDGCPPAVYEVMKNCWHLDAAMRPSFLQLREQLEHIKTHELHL

c1cc2[nH]nc3c2c(n1)N(C1CCC1)CCC3 [Example 22, 6-cyclobutyl-6,7,8,9-tetrahydro-2H-1,2,5,6-tetraazabenzo[cd]azulene]
percentage inhibition of NUAK1 [1]: 8 percentage | percentage inhibition of PAK4 [2]: 6 percentage | percentage inhibition of TrkA [3]: 0 percentage | percentage inhibition of MLK1 [4]: 0 percentage | percentage inhibition of PRK2 [5]: 2 percentage | percentage inhibition of MINK1 [6]: 0 percentage | percentage inhibition of CSK [7]: 1 percentage | percentage inhibition of CK1δ [8]: 0 percentage

c1cc2[nH]nc3c2c(n1)N(C1CCCC1)CCC3 [Example 23, 6-cyclopentyl-6,7,8,9-tetrahydro-2H-1,2,5,6-tetraazabenzo[cd]azulene]
percentage inhibition of NUAK1 [1]: 17 percentage | percentage inhibition of PAK4 [2]: 0 percentage | percentage inhibition of TrkA [3]: 0 percentage | percentage inhibition of MLK1 [4]: 0 percentage | percentage inhibition of PRK2 [5]: 0 percentage | percentage inhibition of MINK1 [6]: 0 percentage | percentage inhibition of CSK [7]: 0 percentage | percentage inhibition of CK1δ [8]: 0 percentage

c1cc2[nH]nc3c2c(n1)N(C1CCOCC1)CCC3 [Example 29, 6-(tetrahydro-2H-pyran-4-yl)-6,7,8,9-tetrahydro-2H-1,2,5,6-tetraazabenzo[cd]azulene]
percentage inhibition of NUAK1 [1]: 7 percentage | percentage inhibition of PAK4 [2]: 7 percentage | percentage inhibition of TrkA [3]: 20 percentage | percentage inhibition of MLK1 [4]: 0 percentage | percentage inhibition of PRK2 [5]: 0 percentage | percentage inhibition of MINK1 [6]: 0 percentage | percentage inhibition of CSK [7]: 0 percentage | percentage inhibition of CK1δ [8]: 11 percentage

CN1CCC(N2Cc3ccccc3-c3n[nH]c4ccnc2c34)CC1 [Example 55]
percentage inhibition of NUAK1 [1]: 76 percentage | percentage inhibition of PAK4 [2]: 20 percentage | percentage inhibition of TrkA [3]: 5 percentage | percentage inhibition of MLK1 [4]: 24 percentage | percentage inhibition of PRK2 [5]: 0 percentage | percentage inhibition of MINK1 [6]: 12 percentage | percentage inhibition of CSK [7]: 0 percentage | percentage inhibition of CK1δ [8]: 12 percentage

CC(C)n1ncc2c1CN(C1CCN(C)CC1)c1nccc3[nH]nc-2c13 [Example 68]
percentage inhibition of NUAK1 [1]: 65 percentage | percentage inhibition of PAK4 [2]: 25 percentage | percentage inhibition of TrkA [3]: 9 percentage | percentage inhibition of MLK1 [4]: 12 percentage | percentage inhibition of PRK2 [5]: 8 percentage | percentage inhibition of MINK1 [6]: 7 percentage | percentage inhibition of CSK [7]: 0 percentage | percentage inhibition of CK1δ [8]: 3 percentage
